# Data as given in the supplement of paper PMC11424490.
# Assays:
# NCI-H358 [1] = experiment: relative IC50 of cell viability (CellTiter-Glo); higher = less potent
# Procedure, shortened: (§1)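 NCI-H2122 (800 cells/well), SW837 and NCI-H358 (500 cells/well) were seeded in 60 µl in 384-well plates. After 24 h, single compounds were dispensed acoustically in dose series and incubated 72 h (NCI-H2122, NCI-H358) or 144 h (SW837). Viability was read by CellTiter-Glo luminescence (15 min shaking, EnVision reader) and normalised to DMSO controls (percent of control). Relative IC50 (averaged over replicates) and the lower plateau come from a four-parameter nonlinear fit.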
# SW837 [2] = experiment: as above
# Procedure, shortened: as §1
# NCI-H2122 [3] = experiment: as above
# Procedure, shortened: as §1
# NCI-H358 [4] = experiment: fitted bottom plateau of viability curve, % of DMSO control; higher = less maximal inhibition; extreme values may be limits of the assay
# Procedure, shortened: as §1
# SW837 [5] = experiment: as above
# Procedure, shortened: as §1
# NCI-H2122 [6] = experiment: as above
# Procedure, shortened: as §1
# NCI-H358 [7] = experiment: combination cScore with adagrasib (Bliss gap around IC50) (%PoC); higher = stronger additive effect
# Procedure, shortened: (§2)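 Scores represent the average Bliss-independence gap, expected minus measured viability, in a field surrounding both monotherapy IC50s, with the top concentrations used when no IC50 was reached. Cells (NCI-H2122, NCI-H358, SW837) were seeded at 500 or 800 per well in 384-well plates, dosed in matrices at 24 h and grown for 72 h, with SW837 grown for 144 h. Viability was measured by CellTiter-Glo, normalised to vehicle wells and fitted with four-parameter curves.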
# SW837 [8] = experiment: as above
# Procedure, shortened: as §2
# NCI-H2122 [9] = experiment: as above
# Procedure, shortened: as §2
SMILES,relative IC50 of cell viability (NCI-H358 [1]) [nM],relative IC50 of cell viability (SW837 [2]) [nM],relative IC50 of cell viability (NCI-H2122 [3]) [nM],fitted bottom plateau of viability curve (NCI-H358 [4]) [%],fitted bottom plateau of viability curve (SW837 [5]) [%],fitted bottom plateau of viability curve (NCI-H2122 [6]) [%],combination cScore with adagrasib (NCI-H358 [7]),combination cScore with adagrasib (SW837 [8]),combination cScore with adagrasib (NCI-H2122 [9])
COc1ncc(-c2ccc3nccc(-c4ccnnc4)c3c2)cc1NS(=O)(=O)c1ccc(F)cc1F (top concentration tested 50000 nM),32.3,677,43.6,0.391,3.09,2.3,–,–,–
C[C@@H]1CN(CC(=O)Nc2ccc3c(c2)Cc2cccc(-c4cc(=O)cc(N5CCOCC5)o4)c2S3)C[C@H](C)O1 (top concentration tested 50000 nM),9010,39200,11800,8.33,0,31,–,–,–
Cc1cc(C)c(CNC(=O)c2cc(-c3ccc(N4CCNCC4)nc3)cc3c2c(C)cn3C2CCCC2)c(=O)[nH]1 (top concentration tested 50000 nM),11500,10500,17400,0.467,0.31,24.3,–,–,–
CC1(C)CCC(c2ccc(Cl)cc2)=C(CN2CCN(c3ccc(C(=O)NS(=O)(=O)c4ccc(N[C@H](CCN5CCOCC5)CSc5ccccc5)c(S(=O)(=O)C(F)(F)F)c4)cc3)CC2)C1 [ABT-263] (top concentration tested 10000 nM),6290,–,6240,0,46,50,–,–,–
Cc1nc(NC(=O)N2CCC[C@H]2C(N)=O)sc1-c1ccnc(C(C)(C)C(F)(F)F)c1 [BYL-719] (top concentration tested 10000 nM),2610,–,2530,10.9,77.5,17.8,–,–,–
C#Cc1cccc(Nc2ncnc3cc(OCCOC)c(OCCOC)cc23)c1 [Erlotinib] (top concentration tested 10000 nM),1300,–,4260,12.3,82.2,29.5,–,–,–
C[C@H](Nc1ccc2c(c1)OCCn1cc(N3C(=O)OC[C@H]3C(F)F)nc1-2)C(N)=O [GDC-0077] (top concentration tested 10000 nM),712,–,867,23.1,68.7,48.4,–,–,–
COc1cc2ncnc(Nc3ccc(F)c(Cl)c3)c2cc1OCCCN1CCOCC1 [Gefitinib] (top concentration tested 9999.9 nM),883,–,3100,19.7,77.7,37.8,–,–,–
O=C(O)CNC(=O)c1c(O)c2ccccc2n(Cc2ccccc2)c1=O [IOX2] (top concentration tested 50000 nM),10800,–,51400,2.49,52.6,52.8,–,–,–
Cc1c(CN2CCC(Nc3ncnc4sc(CC(F)(F)F)cc34)CC2)ccc2[nH]c(C#N)cc12 [MI-463] (top concentration tested 5000 nM),3910,–,–,0,86.6,79.5,–,–,–
CC(C)n1nc(-c2ccc3oc(N)nc3c2)c2c(N)ncnc21 [MLN-0128] (top concentration tested 99.893 nM),27.2,–,25.9,17.7,85.3,22.6,–,–,–
CC(=O)c1c(C)c2cnc(Nc3ccc(N4CCNCC4)cn3)nc2n(C2CCCC2)c1=O [Palbociclib] (top concentration tested 5000 nM),859,–,–,34.2,93.5,59.8,–,–,–
C[C@@H]1OCC2(CCN(c3cnc(Sc4ccnc(N)c4Cl)c(N)n3)CC2)[C@@H]1N [TNO155] (top concentration tested 10000 nM),499,–,–,29.4,94.5,69.5,–,–,–
CC/C(=C(\c1ccccc1)c1ccc(OCCN(C)C)cc1)c1ccccc1 [Tamoxifen] + C=C(F)C(=O)N1CCN(c2nc(OC[C@@H]3CCCN3C)nc3c2CCN(c2cccc4cccc(Cl)c24)C3)C[C@@H]1CC#N [adagrasib],–,–,–,–,–,–,6.27,5.45,10.3
Cc1nc(-c2cn3c(n2)-c2ccc(-c4cnn(C(C)(C)C(N)=O)c4)cc2OCC3)n(C(C)C)n1 [Taselisib] + C=C(F)C(=O)N1CCN(c2nc(OC[C@@H]3CCCN3C)nc3c2CCN(c2cccc4cccc(Cl)c24)C3)C[C@@H]1CC#N [adagrasib],–,–,–,–,–,–,7.08,26.6,18.1
COc1cc2/c(=N/c3ccc(Br)cc3F)nc[nH]c2cc1OCC1CCN(C)CC1 [Vandetanib] (top concentration tested 10000 nM),1340,–,2070,3.22,82.1,49.8,–,–,–
COc1cc2/c(=N/c3ccc(Br)cc3F)nc[nH]c2cc1OCC1CCN(C)CC1 [Vandetanib] + C=C(F)C(=O)N1CCN(c2nc(OC[C@@H]3CCCN3C)nc3c2CCN(c2cccc4cccc(Cl)c24)C3)C[C@@H]1CC#N [adagrasib],–,–,–,–,–,–,7.95,27.6,21.3
Oc1nc(-c2ccc(C(F)(F)F)cc2)nc2c1CSCC2 [XAV939] + C=C(F)C(=O)N1CCN(c2nc(OC[C@@H]3CCCN3C)nc3c2CCN(c2cccc4cccc(Cl)c24)C3)C[C@@H]1CC#N [adagrasib],–,–,–,–,–,–,4.11,5.74,23.8
CCNC(=O)C[C@@H]1N=C(c2ccc(Cl)cc2)c2cc(OC)ccc2-n2c(C)nnc21 [iBET-762] (top concentration tested 10000 nM),1430,839,–,53,37.6,59.6,–,–,–
CCNC(=O)C[C@@H]1N=C(c2ccc(Cl)cc2)c2cc(OC)ccc2-n2c(C)nnc21 [iBET-762] + C=C(F)C(=O)N1CCN(c2nc(OC[C@@H]3CCCN3C)nc3c2CCN(c2cccc4cccc(Cl)c24)C3)C[C@@H]1CC#N [adagrasib],–,–,–,–,–,–,5.14,0.28,22.7

# More lines, main results first:
relative IC50 of cell viability (NCI-H358 [1]) [nM],relative IC50 of cell viability (SW837 [2]) [nM],relative IC50 of cell viability (NCI-H2122 [3]) [nM],SMILES,fitted bottom plateau of viability curve (NCI-H358 [4]) [%],fitted bottom plateau of viability curve (SW837 [5]) [%],fitted bottom plateau of viability curve (NCI-H2122 [6]) [%],combination cScore with adagrasib (NCI-H358 [7]),combination cScore with adagrasib (SW837 [8]),combination cScore with adagrasib (NCI-H2122 [9])
18.1,907,11.9,Cc1nc(Nc2n[nH]c3c2CN(C(=O)N[C@H](CN(C)C)c2ccccc2)C3(C)C)c2sccc2n1 (top concentration tested 9999.9 nM),5.57,0,11.9,–,–,–
513,1570,130,CNS(=O)(=O)Nc1nccc(Cc2c(C)c3ccc(Oc4ncccn4)cc3oc2=O)c1F (top concentration tested 10000 nM),2.19,18.8,1.94,–,–,–
3590,–,3790,Cc1c(-c2c(-c3ccc(F)o3)sc3ncnc(O[C@H](Cc4ccccc4OCc4ccnn4CC(F)(F)F)C(=O)O)c23)ccc(OCCN2CCN(C)CC2)c1Cl (top concentration tested 10000 nM),0,101,34.5,–,–,–
5730,–,4100,COc1cc(CCc2cc(NC(=O)c3ccc(N4CC(C)NC(C)C4)cc3)n[nH]2)cc(OC)c1 (stereo not given) [AZD4547] (top concentration tested 10000 nM),0,86.8,68,–,–,–
28,–,–,CCN(CCCOc1ccc2c(Nc3cc(CC(=O)Nc4cccc(F)c4)[nH]n3)ncnc2c1)CCOP(=O)(O)O [AZD-1152] (top concentration tested 1000.1 nM),60.1,62,57.4,–,–,–
1360,7040,–,Cc1nc(Nc2ncc(C(=O)Nc3c(C)cccc3Cl)s2)cc(N2CCN(CCO)CC2)n1 [Dasatinib] (top concentration tested 10000 nM),0,0,78.1,–,–,–
262,–,–,C=CC(=O)N1CCC[C@@H](n2nc(-c3ccc(Oc4ccccc4)cc3)c3c(N)ncnc32)C1 [Ibrutinib] (top concentration tested 10000 nM),12.4,76.6,76.7,–,–,–
1990,–,2160,NC1(c2ccc(-c3nc4ccn5c(=O)[nH]nc5c4cc3-c3ccccc3)cc2)CCC1 [MK-2206] (top concentration tested 10000 nM),33.4,79.9,31.8,–,–,–
922,–,384,COc1cc(N2CCC(N3CCN(C)CC3)CC2)ccc1Nc1ncc(Cl)c(Nc2ccccc2S(=O)(=O)C(C)C)n1 [NVP-TAE684] (top concentration tested 10000 nM),3.01,56.5,0.655,–,–,–
470,–,290,Cc1nc(-c2cn3c(n2)-c2ccc(-c4cnn(C(C)(C)C(N)=O)c4)cc2OCC3)n(C(C)C)n1 [Taselisib] (top concentration tested 10000 nM),1.64,86,16.9,–,–,–
